Measurements: article PMC3174355 (Journal of medicinal chemistry, 2011)

Target: Rat nNOS (Rattus norvegicus, UniProt P29476)
Experiment: NOS inhibition assay, Ki for rat nNOS
Type: biochemical

| SMILES | lower potency for rat nNOS (8b vs 8a) [fold] | increase in nNOS potency (8a vs 1b (m-chloro for m-fluoro)) [fold] |
| --- | --- | --- |
| Cc1cc(N)nc(C[C@@H]2CNC[C@@H]2OCCNCC(F)(F)c2ccccc2Cl)c1 [Compound 8b, 6-(((3R,4R)-4-(2-((2,2-Difluoro-2-(2-chlorophenyl)ethyl)amino)ethoxy)pyrrolidin-3-yl)methyl)-4-methylpyridin-2-amine] | 2 |  |
| Cc1cc(N)nc(C[C@@H]2CNC[C@@H]2OCCNCC(F)(F)c2cccc(Cl)c2)c1 [Compound 8a, 6-(((3R,4R)-4-(2-((2,2-Difluoro-2-(3-chlorophenyl)ethyl)amino)ethoxy)pyrrolidin-3-yl)methyl)-4-methylpyridin-2-amine] |  | 1.3 |
